Data reported in ChEMBL document CHEMBL1201862, “PubChem BioAssay data set” (2004).
Activity calls are given as the source filed them. No stated cut-off is given here; in the data, actives have a measured IC50 and inactives only a lower limit.

Target: Envelope glycoprotein gp160 (Human immunodeficiency virus 1, UniProt Q6QLK5)
Assay: cell-free HIV fusion peptide-binding blockers – biochemical, uHTS, fluorescence dequenching, […] (AID 1986)

Chain of Envelope glycoprotein gp160 (Q6QLK5 whole entry, the tested form may be a part): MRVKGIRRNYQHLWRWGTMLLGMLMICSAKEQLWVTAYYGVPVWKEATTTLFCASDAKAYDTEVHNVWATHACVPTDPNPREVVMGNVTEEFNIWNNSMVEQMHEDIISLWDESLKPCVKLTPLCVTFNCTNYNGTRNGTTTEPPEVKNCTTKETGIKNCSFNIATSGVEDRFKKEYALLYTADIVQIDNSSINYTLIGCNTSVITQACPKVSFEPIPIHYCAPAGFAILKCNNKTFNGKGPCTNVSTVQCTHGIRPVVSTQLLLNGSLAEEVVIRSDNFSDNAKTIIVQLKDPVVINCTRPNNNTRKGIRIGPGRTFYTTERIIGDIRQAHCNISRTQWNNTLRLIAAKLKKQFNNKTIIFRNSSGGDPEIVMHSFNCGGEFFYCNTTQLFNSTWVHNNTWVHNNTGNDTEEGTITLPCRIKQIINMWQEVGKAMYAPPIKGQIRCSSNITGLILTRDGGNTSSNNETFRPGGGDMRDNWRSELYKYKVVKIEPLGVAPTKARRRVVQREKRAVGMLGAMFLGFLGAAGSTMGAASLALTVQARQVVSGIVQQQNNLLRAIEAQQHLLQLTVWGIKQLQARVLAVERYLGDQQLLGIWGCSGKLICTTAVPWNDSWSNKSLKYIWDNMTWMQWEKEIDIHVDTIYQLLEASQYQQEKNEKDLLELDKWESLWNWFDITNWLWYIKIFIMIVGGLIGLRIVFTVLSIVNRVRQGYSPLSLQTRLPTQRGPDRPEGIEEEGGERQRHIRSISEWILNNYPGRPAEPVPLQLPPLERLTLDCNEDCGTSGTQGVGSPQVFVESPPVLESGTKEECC

**Q.** For O=C1Nc2ccc(Br)cc2/C1=C1/SC(=S)N(NS(=O)(=O)c2ccccc2)C1=O, which IC50 is on record?
**A.** 23.9 µM (active)
